Source: ChEMBL document CHEMBL5715949, “Discovery of a selective irreversible BMX inhibitor for prostate cancer” (ACS Chem Biol, 2013)
Calls of active or inactive are those of the source. No cut-off for these calls is given here.

Tests used:
[1] = biological target: Insulin receptor-related protein (Homo sapiens) (UniProt P14616); assay: Inhibition of INSRR (unknown origin) assessed as remaining activity at 1 uM by Kinome scan method relative to control
[2] = biological target: Phosphatidylinositol 4,5-bisphosphate 3-kinase catalytic subunit alpha isoform (Homo sapiens) (UniProt P42336); assay: Inhibition of PIK3CA (unknown origin) assessed as remaining activity at 1 uM by Kinome scan method relative to control
[3] = biological target: Inhibitor of nuclear factor kappa-B kinase subunit beta (Homo sapiens) (UniProt O14920); assay: Inhibition of IKK-beta (unknown origin) assessed as remaining activity at 1 uM by Kinome scan method relative to control
[4] = biological target: Phosphatidylinositol 4-kinase beta (Homo sapiens) (UniProt Q9UBF8); assay: Inhibition of PIK4CB (unknown origin) assessed as remaining activity at 1 uM by Kinome scan method relative to control
[5] = biological target: Tyrosine-protein kinase Fes/Fps (Homo sapiens) (UniProt P07332); assay: Inhibition of FES (unknown origin) assessed as remaining activity at 1 uM by Kinome scan method relative to control
[6] = Induction of cell cycle arrest in human RV-1 cells assessed as accumulation of cells at S phase at 2.5 uM incubated for 5 days by propidium iodide staining based flow cytometric analysis (reference value: 28.9 %); type: functional; conditions: time 5 day
LNCaP C4-2 = assay: Antiproliferative activity against human C4-2 cells assessed growth inhibition incubated for 2 to 5 days by CellTiter-Glo assay; type: functional; conditions: time 2-5 day
[7] = biological target: Tyrosine-protein kinase ZAP-70 (Homo sapiens) (UniProt P43403); assay: Inhibition of ZAP70 (unknown origin) assessed as remaining activity at 1 uM by Kinome scan method relative to control
[8] = biological target: Phosphatidylinositol 5-phosphate 4-kinase type-2 gamma (Homo sapiens) (UniProt Q8TBX8); assay: Inhibition of PIP5K2C (unknown origin) assessed as remaining activity at 1 uM by Kinome scan method relative to control
[9] = biological target: Mitogen-activated protein kinase 12 (Homo sapiens) (UniProt P53778); assay: Inhibition of P38gamma (unknown origin) assessed as remaining activity at 1 uM by Kinome scan method relative to control
[10] = biological target: Cytoplasmic tyrosine-protein kinase BMX (Homo sapiens, UniProt P51813); assay: Inhibition of Flag-tagged BMX (unknown origin) expressed in HEK293T cells pre incubated for 30 mins followed by ATP addition and measured after 20 mins by immunoprecipitate assay; type: cell-based
[11] = biological target: BDNF/NT-3 growth factors receptor (Homo sapiens) (UniProt Q16620); assay: Inhibition of TRKB (unknown origin) assessed as remaining activity at 1 uM by Kinome scan method relative to control
[12] = biological target: Mitogen-activated protein kinase kinase kinase 11 (Homo sapiens) (UniProt Q16584); assay: Inhibition of MLK3 (unknown origin) assessed as remaining activity at 1 uM by Kinome scan method relative to control
[13] = biological target: Serine/threonine-protein kinase TAO2 (Homo sapiens) (UniProt Q9UL54); assay: Inhibition of TAOK2 (unknown origin) assessed as remaining activity at 1 uM by Kinome scan method relative to control
[14] = biological target: Bone morphogenetic protein receptor type-1A (Homo sapiens) (UniProt P36894); assay: Inhibition of BMPR1A (unknown origin) assessed as remaining activity at 1 uM by Kinome scan method relative to control
[15] = Induction of cell cycle arrest in human RV-1 cells assessed as accumulation of cells at G2/M phase at 2.5 uM incubated for 5 days in presence of MK2206 by propidium iodide staining based flow cytometric analysis (reference value: 11.4 %); type: functional; conditions: time 5 day
[16] = biological target: Phosphatidylinositol 5-phosphate 4-kinase type-2 beta (Homo sapiens) (UniProt P78356); assay: Inhibition of PIP5K2B (unknown origin) assessed as remaining activity at 1 uM by Kinome scan method relative to control
[17] = biological target: Rhodopsin kinase GRK7 (Homo sapiens) (UniProt Q8WTQ7); assay: Inhibition of GRK7 (unknown origin) assessed as remaining activity at 1 uM by Kinome scan method relative to control
RV-1 [18] = assay: Inhibition of MAPK signalling pathway in human RV-1 cells assessed as decrease in ERK1/2 phosphorylation at T202/204 residue at 2.5 uM incubated for 4 hrs by immunoblot analysis; type: cell-based
[19] = tested on: Hepatocyte growth factor receptor (Homo sapiens), P08581 [M1250T]; assay: Inhibition of MET M1250T mutant (unknown origin) assessed as remaining activity at 1 uM by Kinome scan method relative to control
[20] = biological target: Protein kinase C delta type (Homo sapiens) (UniProt Q05655); assay: Inhibition of PRKCD (unknown origin) assessed as remaining activity at 1 uM by Kinome scan method relative to control
[21] = tested on: Receptor-type tyrosine-protein kinase FLT3 (Homo sapiens), P36888 [UNDEFINED MUTATION]; assay: Inhibition of FLT3 ITD mutant (unknown origin) assessed as remaining activity at 1 uM by Kinome scan method relative to control
BaF3 = assay: Antiproliferative activity against mouse BaF3 cells expressing TEL-fused BLK assessed growth inhibition incubated for 2 to 5 days by CellTiter-Glo assay; type: functional; conditions: time 2-5 day
[22] = biological target: Serine/threonine-protein kinase PAK 1 (Homo sapiens) (UniProt Q13153); assay: Inhibition of PAK1 (unknown origin) assessed as remaining activity at 1 uM by Kinome scan method relative to control
[23] = biological target: Mitogen-activated protein kinase kinase kinase 7 (Homo sapiens) (UniProt O43318); assay: Inhibition of TAK1 (unknown origin) assessed as remaining activity at 1 uM by Kinome scan method relative to control
[24] = biological target: Tyrosine-protein kinase Yes (Homo sapiens) (UniProt P07947); assay: Inhibition of YES (unknown origin) assessed as remaining activity at 1 uM by Kinome scan method relative to control
[25] = biological target: Protein kinase C eta type (Homo sapiens) (UniProt P24723); assay: Inhibition of PRKCH (unknown origin) assessed as remaining activity at 1 uM by Kinome scan method relative to control
[26] = tested on: Mast/stem cell growth factor receptor Kit (Homo sapiens), P10721 [V559D]; assay: Inhibition of KIT V559D mutant (unknown origin) assessed as remaining activity at 1 uM by Kinome scan method relative to control
[27] = tested on: Mast/stem cell growth factor receptor Kit (Homo sapiens), P10721 [D816H]; assay: Inhibition of KIT D816H mutant (unknown origin) assessed as remaining activity at 1 uM by Kinome scan method relative to control
[28] = biological target: Ephrin type-B receptor 2 (Homo sapiens) (UniProt P29323); assay: Inhibition of EPHB2 (unknown origin) assessed as remaining activity at 1 uM by Kinome scan method relative to control
RV-1 [29] = assay: Induction of apoptosis in human RV-1 cells assessed as increase in cleaved caspase-3 protein expression at 5 uM incubated for 3 days by immunostaining analysis; type: functional, cell-based; conditions: time 3.0 day
[30] = Inhibition of PI3K/AKT/mTOR signalling pathway in human RV-1 cells assessed as decrease in AKT phosphorylation at T308 residue at 2.5 uM incubated for 4 hrs by immunoblot analysis; type: cell-based

Phosphatidylinositol 5-phosphate 4-kinase type-2 gamma (Homo sapiens), sequence (Q8TBX8 whole entry): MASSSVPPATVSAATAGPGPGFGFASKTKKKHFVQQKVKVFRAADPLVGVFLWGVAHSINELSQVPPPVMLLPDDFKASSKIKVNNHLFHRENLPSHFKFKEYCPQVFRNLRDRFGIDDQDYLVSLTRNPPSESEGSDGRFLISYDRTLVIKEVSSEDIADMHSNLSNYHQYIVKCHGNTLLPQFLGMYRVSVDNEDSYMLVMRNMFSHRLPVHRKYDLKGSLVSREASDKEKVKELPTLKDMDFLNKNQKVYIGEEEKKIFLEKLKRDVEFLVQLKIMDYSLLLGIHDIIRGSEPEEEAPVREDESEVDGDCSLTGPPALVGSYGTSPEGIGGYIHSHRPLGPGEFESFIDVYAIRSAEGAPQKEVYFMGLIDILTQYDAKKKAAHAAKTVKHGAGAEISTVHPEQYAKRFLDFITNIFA
Protein kinase C eta type (Homo sapiens), sequence (P24723 whole entry): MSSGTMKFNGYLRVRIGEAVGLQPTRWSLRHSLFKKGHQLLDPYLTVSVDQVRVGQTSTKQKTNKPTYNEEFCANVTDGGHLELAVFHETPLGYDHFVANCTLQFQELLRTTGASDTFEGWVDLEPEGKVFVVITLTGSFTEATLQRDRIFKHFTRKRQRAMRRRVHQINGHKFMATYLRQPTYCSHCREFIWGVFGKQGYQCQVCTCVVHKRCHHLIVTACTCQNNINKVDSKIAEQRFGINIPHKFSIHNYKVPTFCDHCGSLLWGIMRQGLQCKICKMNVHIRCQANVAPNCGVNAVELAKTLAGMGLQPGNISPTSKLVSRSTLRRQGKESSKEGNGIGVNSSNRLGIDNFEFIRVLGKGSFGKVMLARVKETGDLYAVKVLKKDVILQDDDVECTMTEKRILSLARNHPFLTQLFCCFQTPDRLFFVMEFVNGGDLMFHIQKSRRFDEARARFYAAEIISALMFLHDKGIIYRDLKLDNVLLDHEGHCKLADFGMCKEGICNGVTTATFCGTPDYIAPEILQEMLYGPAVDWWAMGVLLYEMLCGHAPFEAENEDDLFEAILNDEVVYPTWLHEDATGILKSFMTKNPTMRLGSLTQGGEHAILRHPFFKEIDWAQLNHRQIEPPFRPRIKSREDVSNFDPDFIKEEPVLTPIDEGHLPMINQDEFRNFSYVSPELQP
Serine/threonine-protein kinase TAO2 (Homo sapiens), sequence (Q9UL54 whole entry): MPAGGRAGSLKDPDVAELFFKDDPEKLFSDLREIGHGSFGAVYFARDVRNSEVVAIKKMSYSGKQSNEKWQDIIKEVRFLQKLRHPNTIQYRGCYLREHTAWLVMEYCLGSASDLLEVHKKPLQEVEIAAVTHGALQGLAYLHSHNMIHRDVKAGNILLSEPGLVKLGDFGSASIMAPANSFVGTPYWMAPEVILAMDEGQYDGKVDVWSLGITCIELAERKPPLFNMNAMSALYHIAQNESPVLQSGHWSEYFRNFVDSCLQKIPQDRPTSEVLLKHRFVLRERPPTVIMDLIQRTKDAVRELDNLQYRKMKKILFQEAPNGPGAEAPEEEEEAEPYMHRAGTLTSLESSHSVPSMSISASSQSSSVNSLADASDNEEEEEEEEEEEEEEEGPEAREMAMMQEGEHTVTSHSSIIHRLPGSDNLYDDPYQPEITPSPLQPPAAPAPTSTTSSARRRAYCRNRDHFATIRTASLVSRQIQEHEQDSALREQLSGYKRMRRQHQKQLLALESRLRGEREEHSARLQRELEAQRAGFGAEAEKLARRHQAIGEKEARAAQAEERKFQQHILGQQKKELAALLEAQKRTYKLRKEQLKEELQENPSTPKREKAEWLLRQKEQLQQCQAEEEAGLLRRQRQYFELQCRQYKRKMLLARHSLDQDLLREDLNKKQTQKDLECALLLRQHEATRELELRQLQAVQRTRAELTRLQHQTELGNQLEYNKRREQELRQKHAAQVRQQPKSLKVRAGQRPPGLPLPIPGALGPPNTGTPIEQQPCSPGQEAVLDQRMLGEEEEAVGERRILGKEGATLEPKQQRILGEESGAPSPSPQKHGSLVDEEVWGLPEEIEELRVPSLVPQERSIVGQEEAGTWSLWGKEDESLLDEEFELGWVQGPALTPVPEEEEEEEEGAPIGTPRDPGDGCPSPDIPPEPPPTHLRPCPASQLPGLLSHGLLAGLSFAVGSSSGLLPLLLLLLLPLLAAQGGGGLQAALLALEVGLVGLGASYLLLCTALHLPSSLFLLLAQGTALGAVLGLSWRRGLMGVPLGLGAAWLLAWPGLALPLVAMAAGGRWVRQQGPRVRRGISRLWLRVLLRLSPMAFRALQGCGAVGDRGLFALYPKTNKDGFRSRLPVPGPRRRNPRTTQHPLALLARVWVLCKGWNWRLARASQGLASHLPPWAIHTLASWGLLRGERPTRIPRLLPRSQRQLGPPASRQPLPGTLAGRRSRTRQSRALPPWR
Tyrosine-protein kinase ZAP-70 (Homo sapiens), sequence (P43403 whole entry): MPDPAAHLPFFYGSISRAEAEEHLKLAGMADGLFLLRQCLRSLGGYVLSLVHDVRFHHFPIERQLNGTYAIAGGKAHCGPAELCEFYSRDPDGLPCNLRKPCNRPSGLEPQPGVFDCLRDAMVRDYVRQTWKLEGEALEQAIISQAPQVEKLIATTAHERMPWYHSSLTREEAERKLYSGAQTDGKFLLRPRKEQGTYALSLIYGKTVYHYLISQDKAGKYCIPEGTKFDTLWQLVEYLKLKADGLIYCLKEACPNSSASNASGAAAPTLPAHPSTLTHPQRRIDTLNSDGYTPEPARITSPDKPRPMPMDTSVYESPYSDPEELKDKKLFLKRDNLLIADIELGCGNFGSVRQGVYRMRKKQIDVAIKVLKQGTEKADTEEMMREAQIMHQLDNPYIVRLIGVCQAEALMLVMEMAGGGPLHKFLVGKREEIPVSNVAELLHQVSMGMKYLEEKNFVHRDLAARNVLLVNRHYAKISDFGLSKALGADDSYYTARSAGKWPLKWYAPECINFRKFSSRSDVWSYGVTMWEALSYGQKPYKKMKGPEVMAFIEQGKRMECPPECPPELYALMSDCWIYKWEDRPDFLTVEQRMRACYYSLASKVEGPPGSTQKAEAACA
Phosphatidylinositol 4-kinase beta (Homo sapiens), sequence (Q9UBF8 2-816 limits assumed): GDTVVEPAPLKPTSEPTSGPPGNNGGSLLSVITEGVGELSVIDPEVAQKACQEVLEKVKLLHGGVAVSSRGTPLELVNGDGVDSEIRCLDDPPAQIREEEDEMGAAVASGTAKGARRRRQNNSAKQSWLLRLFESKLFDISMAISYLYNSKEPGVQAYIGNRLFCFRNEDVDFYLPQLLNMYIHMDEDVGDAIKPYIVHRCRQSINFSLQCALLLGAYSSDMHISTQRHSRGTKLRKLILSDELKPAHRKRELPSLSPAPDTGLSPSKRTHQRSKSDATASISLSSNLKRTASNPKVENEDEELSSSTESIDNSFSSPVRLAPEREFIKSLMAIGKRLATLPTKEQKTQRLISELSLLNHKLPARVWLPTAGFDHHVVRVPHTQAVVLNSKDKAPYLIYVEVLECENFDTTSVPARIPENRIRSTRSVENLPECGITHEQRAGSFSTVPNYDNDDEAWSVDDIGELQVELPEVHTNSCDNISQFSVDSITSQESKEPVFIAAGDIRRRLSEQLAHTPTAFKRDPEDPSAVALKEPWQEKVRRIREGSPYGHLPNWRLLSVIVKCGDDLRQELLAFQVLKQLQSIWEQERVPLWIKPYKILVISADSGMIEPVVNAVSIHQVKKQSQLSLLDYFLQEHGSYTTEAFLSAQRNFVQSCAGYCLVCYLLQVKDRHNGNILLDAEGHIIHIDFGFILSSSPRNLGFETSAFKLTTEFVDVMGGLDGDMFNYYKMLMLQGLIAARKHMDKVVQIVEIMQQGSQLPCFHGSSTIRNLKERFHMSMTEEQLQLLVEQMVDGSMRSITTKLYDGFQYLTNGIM
Serine/threonine-protein kinase PAK 1 (Homo sapiens), sequence (Q13153 whole entry): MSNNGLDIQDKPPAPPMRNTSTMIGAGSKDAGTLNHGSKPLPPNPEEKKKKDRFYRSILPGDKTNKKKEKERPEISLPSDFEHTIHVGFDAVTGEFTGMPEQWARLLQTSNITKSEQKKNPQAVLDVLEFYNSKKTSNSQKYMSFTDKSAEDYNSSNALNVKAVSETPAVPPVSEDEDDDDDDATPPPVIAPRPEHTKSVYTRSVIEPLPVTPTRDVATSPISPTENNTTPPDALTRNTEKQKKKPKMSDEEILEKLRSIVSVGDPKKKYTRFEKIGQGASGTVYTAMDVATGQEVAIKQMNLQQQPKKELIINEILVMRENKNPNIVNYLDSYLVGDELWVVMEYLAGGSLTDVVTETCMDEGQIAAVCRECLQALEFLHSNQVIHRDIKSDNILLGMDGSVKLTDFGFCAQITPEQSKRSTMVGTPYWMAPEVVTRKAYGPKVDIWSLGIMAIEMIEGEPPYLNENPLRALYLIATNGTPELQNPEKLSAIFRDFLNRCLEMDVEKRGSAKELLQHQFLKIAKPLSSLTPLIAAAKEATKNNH
Protein kinase C delta type (Homo sapiens), sequence (Q05655 whole entry, looked up): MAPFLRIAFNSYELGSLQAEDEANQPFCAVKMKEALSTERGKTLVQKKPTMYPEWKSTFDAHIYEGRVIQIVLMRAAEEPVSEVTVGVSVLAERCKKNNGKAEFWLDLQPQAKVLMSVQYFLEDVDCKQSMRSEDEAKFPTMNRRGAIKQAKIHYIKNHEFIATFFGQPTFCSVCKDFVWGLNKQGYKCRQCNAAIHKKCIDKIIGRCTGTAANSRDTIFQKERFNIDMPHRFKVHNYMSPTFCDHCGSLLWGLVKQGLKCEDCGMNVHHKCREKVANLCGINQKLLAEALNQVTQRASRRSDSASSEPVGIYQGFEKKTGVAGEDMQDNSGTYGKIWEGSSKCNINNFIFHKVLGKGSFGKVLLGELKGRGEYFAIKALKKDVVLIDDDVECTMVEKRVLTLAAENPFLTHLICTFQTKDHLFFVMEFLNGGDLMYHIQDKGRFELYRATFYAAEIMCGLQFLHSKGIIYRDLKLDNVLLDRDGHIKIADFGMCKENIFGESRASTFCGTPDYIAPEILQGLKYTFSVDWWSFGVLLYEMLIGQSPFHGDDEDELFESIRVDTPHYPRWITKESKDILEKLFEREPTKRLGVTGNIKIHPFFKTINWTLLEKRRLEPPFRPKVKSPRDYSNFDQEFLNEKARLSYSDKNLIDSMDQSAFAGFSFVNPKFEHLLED

Compound: C=CC(=O)Nc1cc(-n2c(=O)ccc3cnc4ccc(-c5ccc(NS(C)(=O)=O)cc5)cc4c32)ccc1C
- Activity [1]: 98%
- Activity [2]: 68%
- Activity [3]: 93%
- Activity [4]: 79%
- Activity [5]: 92%
- Activity [6]: 20.6%
- GI50 (LNCaP C4-2): > 10 µM
- Activity [7]: 91%
- Activity [8]: 5.6%
- Activity [9]: 72%
- IC50 [10]: 0.138 µM
- Activity [11]: 62%
- Activity [12]: 91%
- Activity [13]: 80%
- Activity [14]: 84%
- Activity [15]: 11.5%
- Activity [16]: 93%
- Activity [17]: 75%
- inhibition (RV-1 [18]): inactive
- Activity [19]: 80%
- Activity [20]: 41%
- Activity [21]: 99%
- GI50 (BaF3): 3.64 µM
- Activity [22]: 86%
- Activity [23]: 83%
- Activity [24]: 74%
- Activity [25]: 98%
- Activity [26]: 87%
- Activity [27]: 99%
- Activity [28]: 80%
- Activity (RV-1 [29]): Active
- inhibition [30]: inactive
